This is an account of results in US20170066717A1, “NEW PHENYLAZETIDINECARBOXYLATE OR -CARBOXAMIDE COMPOUNDS” (INVENTIVA, priority 2014, published 2017).

One experiment addresses T1, NURR-1/RXRα (Homo sapiens, UniProt P19793).
T1 construct: expressed in transfected cells; host or cells: Cos-7 cells
Kind of experiment: Transactivation test, NURR-1-Gal4/RXRα, luciferase reporter in Cos-7 cells. It counts as cell-based. Conditions: for Emax: COS-7, induction level relative to reference XCT0135908 at 2×10^−5 M (=100%), read-out: hNurr1_RXRaFL Emax (%); for EC50: Cos-7 cells, NURR-1-Gal4/RXRα, luciferase reporter, read-out: hNurr1_RXRaFL EC50. In general terms: In a reporter assay the amount or activity of a reporter protein is the signal.

The target of another experiment is T2, NURR-1/RXRγ (Homo sapiens, UniProt P48443).
T2 construct: expressed in transfected cells; host or cells: Cos-7 cells
Kind of experiment: Transactivation test, NURR-1-Gal4/RXRγ, luciferase reporter in Cos-7 cells. In kind it is cell-based. As to conditions: for Emax: COS-7, induction level relative to reference XCT0135908 at 2×10^−5 M (=100%), read-out: hNurr1_RXRgFL Emax (%); for EC50: Cos-7 cells, NURR-1-Gal4/RXRγ, luciferase reporter, read-out: hNurr1_RXRgFL EC50.

T2 sequence (P48443 whole entry): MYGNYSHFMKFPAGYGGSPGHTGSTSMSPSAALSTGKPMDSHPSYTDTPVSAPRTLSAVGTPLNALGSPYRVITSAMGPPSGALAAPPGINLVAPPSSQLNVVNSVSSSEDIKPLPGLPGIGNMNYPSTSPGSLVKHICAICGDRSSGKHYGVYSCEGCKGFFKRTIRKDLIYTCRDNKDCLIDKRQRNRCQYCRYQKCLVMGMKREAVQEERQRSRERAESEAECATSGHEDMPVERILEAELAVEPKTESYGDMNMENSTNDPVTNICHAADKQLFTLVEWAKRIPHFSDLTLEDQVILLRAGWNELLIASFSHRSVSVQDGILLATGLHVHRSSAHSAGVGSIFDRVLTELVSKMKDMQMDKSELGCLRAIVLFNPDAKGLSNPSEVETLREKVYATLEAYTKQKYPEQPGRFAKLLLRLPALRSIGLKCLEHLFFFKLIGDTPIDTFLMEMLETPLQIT
T2 sequence (P43354 whole entry partner): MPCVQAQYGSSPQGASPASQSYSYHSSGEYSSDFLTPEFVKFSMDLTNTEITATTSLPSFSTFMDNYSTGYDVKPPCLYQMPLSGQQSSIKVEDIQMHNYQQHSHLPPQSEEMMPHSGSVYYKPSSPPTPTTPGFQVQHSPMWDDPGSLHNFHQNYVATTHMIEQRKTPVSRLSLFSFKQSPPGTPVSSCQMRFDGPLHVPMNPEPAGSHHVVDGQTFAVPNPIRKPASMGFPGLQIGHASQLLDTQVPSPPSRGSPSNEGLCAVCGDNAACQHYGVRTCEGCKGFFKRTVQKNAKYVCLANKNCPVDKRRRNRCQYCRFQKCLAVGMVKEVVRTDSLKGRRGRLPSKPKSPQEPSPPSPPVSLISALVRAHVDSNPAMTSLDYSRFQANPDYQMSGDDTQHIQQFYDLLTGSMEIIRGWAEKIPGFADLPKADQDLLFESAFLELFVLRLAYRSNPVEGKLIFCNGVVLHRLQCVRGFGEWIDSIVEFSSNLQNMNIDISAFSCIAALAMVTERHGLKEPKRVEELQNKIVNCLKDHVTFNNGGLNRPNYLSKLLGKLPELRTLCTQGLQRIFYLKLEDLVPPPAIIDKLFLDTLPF
T2 sequence (P04386 1-147 partner limits assumed): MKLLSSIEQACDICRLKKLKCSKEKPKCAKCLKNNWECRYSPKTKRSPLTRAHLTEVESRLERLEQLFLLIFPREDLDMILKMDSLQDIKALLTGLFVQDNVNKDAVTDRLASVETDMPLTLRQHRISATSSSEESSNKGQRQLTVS
T1 sequence (P19793 whole entry): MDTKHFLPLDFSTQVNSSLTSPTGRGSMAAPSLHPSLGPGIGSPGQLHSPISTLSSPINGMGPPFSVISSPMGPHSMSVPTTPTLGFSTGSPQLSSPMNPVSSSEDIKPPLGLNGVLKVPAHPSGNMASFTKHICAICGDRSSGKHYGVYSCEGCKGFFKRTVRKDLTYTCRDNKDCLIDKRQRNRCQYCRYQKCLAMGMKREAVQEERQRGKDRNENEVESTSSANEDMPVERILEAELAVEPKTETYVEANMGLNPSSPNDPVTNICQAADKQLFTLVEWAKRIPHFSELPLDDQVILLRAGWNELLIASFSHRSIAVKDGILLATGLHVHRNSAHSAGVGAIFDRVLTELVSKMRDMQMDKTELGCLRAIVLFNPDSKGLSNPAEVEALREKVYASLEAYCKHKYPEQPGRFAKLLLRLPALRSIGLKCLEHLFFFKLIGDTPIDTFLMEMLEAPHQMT
T1 sequence (P43354 whole entry partner): as the sequence (P43354 whole entry partner) above
T1 sequence (P04386 1-147 partner limits assumed): as the sequence (P04386 1-147 partner limits assumed) above

In general, Emax refers to the size of the effect at its maximum, as opposed to the concentration needed. One may read the EC50 as the concentration that produces a half-maximal response. Consider `O=C(O)C1CN(c2cccc(-c3cc(C(F)(F)F)ccc3OCc3cccc(Cl)c3)c2)C1` [Example 107, 1-[3-[2-[(3-chlorophenyl)methyoxy]-5-(trifluoromethyl)-phenyl]phenyl]azetidine-3-carboxylic acid], for which, on NURR-1/RXRα, the Emax was determined as 48% and the EC50 came to 19 nM. Also, at NURR-1/RXRγ, the Emax worked out at 48% and the EC50 is 30 nM.
In the case of `Cn1ccc(COc2ccc(C(F)(F)F)cc2-c2cccc(N3CC(C(=O)O)C3)c2)n1` [Example 108, 1-[3-[2-[(1-methylpyrazol-3-yl)methoxy]-5-(trifluoromethyl)phenyl]phenyl]azetidine-3-carboxylic acid], on NURR-1/RXRα, the Emax came out at 53% and the EC50 stood at 82 nM. At NURR-1/RXRγ, the Emax stood at 54% and the EC50 amounted to 112 nM.
For `O=C(O)C1CN(c2cccc(-c3cc(C(F)(F)F)ccc3OCc3ccsc3)c2)C1` [Example 111, 1-[3-[2-(3-thienylmethoxy)-5-(trifluoromethyl)phenyl]phenyl]azetidine-3-carboxylic acid], in that order: 94%, 8 nM, 94% and 15 nM.
For `CC1(C)CN(c2cccc(N3CC(C(=O)O)C3)c2)c2ccc(C(F)(F)F)cc2O1` [Example 112, 1-[3-[2,2-dimethyl-7-(trifluoromethyl)-3H-1,4,benzoxazin-4-yl]phenyl]azetidine-3-carboxylic acid], in that order: 125%, 3 nM, 136% and 9 nM.
As to `O=C(O)C1CN(c2cccc(N3C(=O)C4(CCC4)Oc4cc(C(F)(F)F)ccc43)c2)C1` [Example 121, 1-[3-[3-oxo-7-(trifluromethyl)spiro[3H1,4-benzoxazine-2,1′-cyclobutane]-4yl]phenyl]azetidine-3-carboxylic acid], the Emax on NURR-1/RXRα turned out to be 122%; on NURR-1/RXRγ it was 133%. For the same molecule, the EC50 at NURR-1/RXRα worked out at 12 nM; on NURR-1/RXRγ, 13 nM.
In the case of `O=C(O)C1CN(c2cccc(-n3cc(CC4CCCC4)c4cc(C(F)(F)F)ccc43)c2)C1` [Example 127, 1-[3-[3-(cyclopentylmethyl)-5-(trifluoromethyl)indol-1-yl]phenyl]azetidine-3-carboxylic acid], at NURR-1/RXRα, the Emax came to 117% and the EC50 amounted to 4 nM. In addition, at NURR-1/RXRγ, the Emax came out at 113% and the EC50 is 3 nM.
For `O=C(O)C1CN(c2cccc(-n3cc(CC4CCOCC4)c4cc(C(F)(F)F)ccc43)c2)C1` [Example 129, 1-[3-[3-(tetrahydropyran-4-ylmethyl)-5-(trifluoromethyl)indol-1-yl]phenyl]azetidine-3-carboxylic acid], in that order: 90%, 7 nM, 88% and 10 nM.
`CNS(=O)(=O)c1cn(-c2cccc(N3CC(C(=O)O)C3)c2)c2ccc(C(F)(F)F)cc12` [Example 137]: the Emax was 82% on NURR-1/RXRα and 85% at NURR-1/RXRγ. In addition, the concentration giving a half-maximal response (EC50) is 995 nM on NURR-1/RXRα and 2090 nM on NURR-1/RXRγ.
For `O=C(O)C1CN(c2cccc(N3CC4(CCCC4)c4cc(C(F)(F)F)ccc43)c2)C1` [Example 139, 1-[3-[5′-(trifluoromethyl)spiro[cyclopentane-1,3′-indoline]-1′-yl]phenyl]azetidine-3-carboxylic acid], in that order: 115%, 122%, 7 nM and 10 nM.
For `O=C(O)C1CN(c2cccc(N3CC4(CCOC4)c4cc(C(F)(F)F)ccc43)c2)C1` (stereo not shown) [Example 140, 1-[3-[5-(trifluoromethyl)spiro[indoline-3,3′-tetrahydrofuran]-1-yl]phenyl]azetidine-3-carboxylic acid] the same measures were 108%, 97%, 40 nM and 30 nM.
For `O=C(O)C1CN(c2cccc(N3c4ccc(C(F)(F)F)cc4C4CCCCC43)c2)C1` (stereo not shown) [Example 144, 1-[3-[6-(trifluoromethyl)-1,2,3,4,4a,9a-hexahydrocarbazol-9-yl]phenyl]azetidine-3-carboxylic acid], in that order: 97%, 105%, 28 nM and 24 nM.
On to `O=C(O)C1CN(c2cccc(-n3c(=O)n(CC4CCCC4)c4cc(C(F)(F)F)ccc43)c2)C1` [Example 149, 1-[3-[3-(cyclopetnylmethyl)-2-oxo-5-(trifluoromethyl)benzimidazol-1-yl]phenyl]azetidine-3-carboxylic acid], for which, at NURR-1/RXRα, the Emax turned out to be 99% and the concentration for a half-maximal effect (EC50) turned out to be 8 nM. Further, at NURR-1/RXRγ, the Emax was 97% and the EC50 was 19 nM.
For `Cc1cn(-c2cccc(N3CC(C(=O)NS(=O)(=O)C(F)(F)F)C3)c2)c2ccc(C(F)(F)F)cc12` [Example 151, 1-[3-[3-methyl-5-(trifluoromethyl)indol-1-yl]phenyl]-N-(trifluoromethylsulfonyl)azetidine-3-carboxamide] the same measures were 95%, 4 nM, 73% and 7 nM.
For `Cc1cn(-c2cccc(N3CC(C(=O)NC(C)C)C3)c2)c2ccc(C(F)(F)F)cc12` [Example 152, N-isopropyl-1-[3-[3-methyl-5-(trifluoromethyl)indol-1-yl]phenyl]azetidine-3-carboxamide], in that order: 116%, 10 nM, 116% and 10 nM.
Consider `Cc1cn(-c2cccc(N3CC(C(=O)NCCN(C)C)C3)c2)c2ccc(C(F)(F)F)cc12` [Example 153, N-(2-dimethylaminoethyl)-1-[3-[3-methyl-5-(trifluoromethyl)indol-1-yl]phenyl]azetidine-3-carboxamide], for which, at NURR-1/RXRα, the Emax came to 87% and the EC50 was determined as 181 nM. In addition, at NURR-1/RXRγ, the Emax turned out to be 111% and the EC50 came out at 455 nM.
For `Cc1cn(-c2cccc(N3CC(C(=O)NCCCCO)C3)c2)c2ccc(C(F)(F)F)cc12` [Example 156, N-(4-hydroxybutyl)-1-[3-[3-methyl-5-(trifluorometyl)indol-1-yl]phenyl]azetidine-3-carboxamide] the same measures were 105%, 3 nM, 117% and 4 nM.
For `Cc1cn(-c2cccc(N3CC(C(=O)NCC(O)CO)C3)c2)c2ccc(C(F)(F)F)cc12` (stereo not shown) [Example 157, N-(2,3-dihydroxypropyl)-1-[3-[3-methyl-5-(trifluoromethyl)indol-1-yl]phenyl]azetidine-3-carboxamide] the same measures were 120%, 3 nM, 114% and 6 nM.
For `Cc1cn(-c2cccc(N3CC(C(=O)NC(CO)CO)C3)c2)c2ccc(C(F)(F)F)cc12` [Example 161, N-[2-hydroxy-1-(hydroxymethyl)ethyl]-1-[3-[3-methyl-5-(trifluoromethyl)indol-1yl]phenyl]azetidine-3-carboxamide], in that order: 113%, 9 nM, 103% and 23 nM.
Take `Cc1cn(-c2cccc(N3CC(C(=O)NC4CCN(C)CC4)C3)c2)c2ccc(C(F)(F)F)cc12` [Example 162, N-(1-methyl-4-piperidyl)-1-[3-[3-methyl-5-(trifluromethyl)indol-1-yl]phenyl]azetidine-3-carboxamide]: on NURR-1/RXRα, the Emax was determined as 100% and the EC50 was 823 nM. For the same molecule, on NURR-1/RXRγ, the Emax was 93% and the EC50 is 1380 nM.
For `Cc1cn(-c2cccc(N3CC(C(=O)NC4COC4)C3)c2)c2ccc(C(F)(F)F)cc12` [Example 163, 1-[3-[3-methyl-5-(trifluoromethyl)indol-1-yl]phenyl]-N-(oxetan-3-yl)azetidine-3-carboxamide], in that order: 123%, 7 nM, 125% and 9 nM.
For `Cc1cn(-c2cccc(N3CC(C(=O)NCCCN4CCNCC4)C3)c2)c2ccc(C(F)(F)F)cc12` [Example 164, 1-[3-[3-methyl-5-(trifluoromethyl)indol-1-yl]phenyl]-N-(3-piperazia-1-ylpropyl)azetidine-3-carboxamide] the same measures were 85%, 723 nM, 88% and 1650 nM.
For `Cc1cn(-c2cccc(N3CC(C(=O)N(C)C)C3)c2)c2ccc(C(F)(F)F)cc12` [Example 165, N,N-dimethyl-1-[3-[3-methyl-5-(tirfluormethyl)indol-1-yl]phenyl]azetidine-3-carboxamide], in that order: 103%, 15 nM, 108% and 20 nM.
On to `Cc1cn(-c2cccc(N3CC(C(=O)NC4CCCC4)C3)c2)c2ccc(C(F)(F)F)cc12` [Example 166, N-cyclopetnyl-1-[3-[3-methyl-5-(trifluoromethyl)indol-1-yl]phenyl]azetidine-3-carboxamide], for which the results for the Emax at NURR-1/RXRα and at NURR-1/RXRγ were 104% and 113%, respectively. Besides, the EC50 on NURR-1/RXRα came to 25 nM; at NURR-1/RXRγ, 41 nM.
For `Cc1cn(-c2cccc(N3CC(C(=O)NCC(C)C)C3)c2)c2ccc(C(F)(F)F)cc12` [Example 167] the same measures were 109%, 131%, 25 nM and 41 nM.
Turning to `Cc1cn(-c2cccc(N3CC(C(=O)NCCO)C3)c2)c2ccc(C(F)(F)F)cc12` [Example 168], on NURR-1/RXRα, the Emax stood at 102% and the EC50 is below 1 nM. Besides, on NURR-1/RXRγ, the maximal effect (Emax) was 106% and the EC50 is below 1 nM.
